# Experimental data published in PubChem BioAssay (NCI).
# Where “and” joins values, the source holds several entries; their conditions need not be identical. Equal entries are not always repeated.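 These data come from cells grown in 96-well plates and exposed to compound for 48 hours at five concentrations. The concentration for 50% growth inhibition is given as GI50. At the TGI there is no net growth.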
# Columns and labels:
# Test in all cases: NCI anticancer screen, dose series, 48 h
# [1] = tested on: 786-0 renal
# [2] = tested on: HL-60(TB) leukemia
# [3] = tested on: HOP-62 NSCLC
# [4] = tested on: HT29 colon
# [5] = tested on: MDA-MB-231 breast
# [6] = tested on: NCI-H23 lung
# [7] = tested on: OVCAR-4 ovarian
# [8] = tested on: U251 CNS
SMILES,GI50 [1] [µM],TGI [1] [µM],TGI [2],GI50 [3] [µM],TGI [3] [µM],GI50 [4] [µM],TGI [4] [µM],GI50 [5] [µM],TGI [5] [µM],GI50 [6] [µM],TGI [6] [µM],GI50 [7] [µM],TGI [7] [µM],GI50 [8] [µM],TGI [8] [µM],GI50 [2] [µM]
CCCNC(=S)N/N=C(\C)c1ccccn1,0.959,> 26,0.333 µM,0.517,17.6,< 0.0127,> 100,0.0757,> 100,0.022,> 100,< 0.01,0.0441,0.0497,> 100,
COc1ccc(S(=O)(=O)N(Cc2ccc3c(n2)C=CC(C)(C)O3)C2CCC2)cc1OC,< 0.01,0.374,0.0249 µM,< 0.01,1.29,0.021,> 36.6,< 0.01,0.0131,0.0145,1.05,< 0.01,0.266,< 0.01,0.883,< 0.01
COC(=O)[C@]12CCC(C)(C)C[C@H]1C1=CC[C@@H]3[C@@]4(C)C/C(=C/c5cccnc5)C(=O)C(C)(C)[C@@H]4CC[C@@]3(C)[C@]1(C)CC2,3.58,17.4,5.2 µM,13.6,67,5,65.9,10.2,32.2,8.05,29.8,11.3,> 100,13.5,46.9,2.06
O=C(CCCSc1nc(-c2ccc(Cl)cc2)cc(-c2ccc(Cl)cc2)n1)NO,0.971,13.1,8 µM,0.618,11.9,1.14,60,1.71,13.2,1.63,10.4,0.603,14.1,0.693,13,1.61
CN(C)C(=S)/N=c1\ss/c(=N\C(=S)N(C)C)n1-c1ccc2c(c1)OCO2,,> 100,> 100 µM,,> 100,,,,,,> 100,,> 100,,> 100,
COc1cccc(NCc2nnc(Nc3ccc(Cl)cc3)c3ccccc23)c1,2.22,7.62,13.1 µM,2.06,8.48,0.34,3.62,1.32,6.32,1.22,6.74,1.33,17.6,2.78,6.54,3.78
COc1cc([N+](=O)[O-])ccc1NC(=O)C(F)(F)F,,> 100,> 100 µM,,> 100,,> 100,,> 100,,> 100,,> 100,,> 100,
CC[C@H](C)[C@H](NC(=O)[C@H]1CCCCN1C)C(=O)N(C)[C@H](CCc1nc(C(=O)N[C@@H](Cc2ccccc2)C[C@H](C)C(=O)OC)cs1)C(C)C,0.432,> 11.6,0.242 µM,0.777,> 22.9,0.202,3.06,0.36,1.8,0.866,> 25,1.36,> 25,0.345,> 25,0.0677
CC(=O)[O][Hg][c]1c(C)c(C)c(C)c(C)c1C,1.65,3.03,4.75 µM,2.05,4.35,2.02,4.77,0.552,1.31,0.98,2.52,2.04,4.47,0.399,1.61,1.91
COc1cc(Cn2c(-c3ccccc3)cc3c2-c2oncc2CC3)cc(OC)c1OC,1.52,39.8,1.36 µM,2.37,> 100,0.446,47.2,2.82,> 100,2.57,> 100,3.12,> 100,0.947,35.4,0.32
O=C(O)C(Sc1ccc(Cl)cc1)Sc1ccc(Cl)cc1,,> 100,> 100 µM,,> 100,,> 100,,> 100,,> 100,,> 100,,> 100,
CNC1C(=O)C(C)C(O)(C(CC(C)C(O)/C=C/C=C/CNC(=O)C(C)(C)C(O)\C(C)=C/C=C\C=C\Cc2cnc(C)o2)OC)C12C(=O)OC2COC (stereo not given) (tested in a mixture with another compound),,73.7,3.48 µM,,24.1,,20.7,,> 63.3,,> 60.7,,> 100,,> 52.2,
COc1ccc(-c2cc3c(nn2)-c2ccccc2C3=O)cc1,> 100,> 100,> 100 µM,> 100,> 100,> 100,> 100,70,> 100,> 100,> 100,> 100,> 100,> 100,> 100,> 100
NC(N)=NC(N)=Nc1cc2ccccc2c2ccccc12,7.23,22.5,26.3 µM,8.53,22.8,7.83,23.6,3.52,16,12.3,29.7,10.1,25.9,4.83,18.1,10.5
COc1ccc(C2CC(=O)c3c(O)c(OC)c(OC)c(OC)c3O2)c(O)c1 (stereo not given),0.839,> 100,0.632 µM,0.211,28.2,2.64,> 100,0.997,31.7,0.392,18.6,1.18,66.9,0.0985,36.1,0.0459
COc1cc2c3c(n(CCCCl)c(=O)c2cc1OC)-c1ccccc1C3=O,12.3,> 100,,4.49,44.5,,,37,> 100,97.3,> 100,,,11.9,> 100,
Cn1cc(-c2csc(-c3cccc(F)c3)n2)c2cccnc21,16.1,30.4,49.9 µM,18.9,34.5,14.2,27.9,16.8,35.3,17.3,36,27.6,78.6,15.5,31.8,14.4

SMILES,GI50 [1] [µM],TGI [1] [µM],TGI [2],GI50 [3] [µM],TGI [3] [µM],GI50 [4] [µM],TGI [4] [µM],GI50 [5] [µM],TGI [5] [µM],GI50 [6] [µM],TGI [6] [µM],GI50 [7] [µM],TGI [7] [µM],GI50 [8] [µM],TGI [8] [µM],GI50 [2] [µM]
COc1cc(-c2c(C#N)c(N)n3c(nc4ccccc43)c2C#N)cc(Br)c1OC,6.24,> 100,> 100 µM,> 100,> 100,,,2.46,> 100,,,,,4.47,> 100,> 100
COc1ccc(C2CC(=O)c3c(OC)cc(OC)cc3O2)cc1 (stereo not given),> 100,> 100,,> 100,> 100,> 100,> 100,> 100,> 100,> 100,> 100,> 100,> 100,> 100,> 100,
COc1ccc(/C(=N/Nc2ccc([N+](=O)[O-])cc2)Sc2cc(Cl)c(C)cc2S(N)(=O)=O)cc1,4.21,14.9,> 100 µM,5.94,16.4,2.91,6.89,3.04,8.21,4.69,9.77,2.61,7.11,7.13,24.3,40.3
CCCCNC(=O)NS(=O)(=O)c1ccc(N2N=C(c3ccc(C)cc3C)CC2c2ccc(N(C)C)cc2)cc1 (stereo not given),5.45,> 100,13.6 µM,6.86,> 100,4.2,19.9,5.36,35.6,4.92,> 100,5.41,> 100,3.59,27.6,3.48
CCCCCCCCCCC(O)C1CCC(C2CCC(C(O)CCCCC(O)CCCCCC(O)CC3=CC(C)OC3=O)O2)O1 (stereo not given),3.53,> 25,8.62 µM and > 25 µM,7.3,> 25,,,4.82,> 25,0.0144,> 25,,> 25,5.65,> 25,> 25
Cc1cc(C)cc(Nc2cc(C)nc3nc(C(F)(F)F)nn23)c1,37.6,> 100,> 100 µM,44,> 100,> 100,> 100,> 100,> 100,> 100,> 100,> 100,> 100,> 100,> 100,> 100
COc1cccc(N=Cc2c3ccccc3c(=O)n3c2oc2ccccc23)c1,14,> 100,,13.7,90.1,32.7,> 100,10.2,48.7,13.3,59,> 100,> 100,7.67,> 100,
COc1cc2c3c(n(CCCBr)c(=O)c2cc1OC)-c1ccc(NC(C)=O)cc1C3=O,5.4,25.2,7.78 µM,1.29,21.3,2.99,> 100,25.8,> 100,11.8,46.4,32.3,> 100,1.17,44.1,0.55
CC(C)CC(N)C(=O)O (stereo not given),,> 100,> 100 µM,,> 100,,> 100,,> 100,,> 100,,> 100,,> 100,
CCCCn1c(-c2ccc(C(=O)O/N=C(\N)c3ccc(OC)cc3)cc2)nc(-c2ccccc2)c1-c1ccccc1,0.538,1.91,,,,2.9,> 100,,,,,,,,,
CN1C(NC(=O)c2ccc(Cl)nc2)=NS(=O)(=O)c2cc(Cl)ccc21,> 100,> 100,> 100 µM,> 100,> 100,> 100,> 100,> 100,> 100,> 100,> 100,> 100,> 100,> 100,> 100,> 100
O=C(O)c1cc(N=Nc2ccc([As](=O)(O)O)cc2)ccc1O,,> 100,> 100 µM,,> 100,,> 100,,> 100,,> 100,,> 100,,> 100,
COc1cc2c(/C=C3/C(=O)Nc4cccc(Cl)c43)c(Cl)n(Cc3ccccc3)c2cc1C,3.59,26.7,> 100 µM,9.73,53.9,4.99,> 100,3.38,24.4,4.59,15,7.73,> 100,2.46,20.6,5.22
CC(C)(C)OC(=O)N(CCCN(CCn1c2c(c3ccccc3c1=O)C(=O)c1ccccc1-2)C(=O)OC(C)(C)C)CCn1c2c(c3ccccc3c1=O)C(=O)c1ccccc1-2,16.5,> 50,> 50 µM,22.3,> 50,> 50,> 50,> 50,> 50,> 50,> 50,> 50,> 50,15.2,> 50,14.1
COc1ccc2cc(C(=O)/C=C/c3cccc(OC)c3OC)ccc2c1,4.26,16.6,,17.4,34.5,4.07,17.6,14.8,38.5,11.2,25.3,,,7.9,22,
C[C@]12CC[C@@H]3c4ccc(O)cc4CC[C@H]3[C@@H]1CC[C@@H]2NS(=O)(=O)c1ccc(C(F)(F)F)cc1,1.95,3.77,,2,3.7,2.01,3.94,1.74,3.31,2.08,5.43,1.42,2.78,1.75,3.3,
